Usually EC30 stands for the concentration needed for an effect of 30%. Higher therefore signals a need for much substance.

Holding throughout (type): functional
The species entered for assay [1] is Cavia porcellus. In words: Concentration required to produce 30% reduction from the initial beat rates in isolated guinea pig right atria.
Assay [2] deals with Rattus norvegicus. In words: Reduction of spontaneous sinus heart rate (HR) when […] in conscious rats; Reduced from -5.28 to -20.0 beats/min.
The subject of assay [3] is Rattus norvegicus. As to the kind of experiment: Reduction of spontaneous sinus heart rate (HR) when […] in conscious rats; Reduced from -23.5 to -87.8 beats/min.
For assay [4], the system named is Rattus norvegicus. As to the kind of experiment: Reduction of mean blood pressure (MBP) when […] in conscious rats; Reduced from 2.12 to 2.0 mmHg.

The structures appear in SMILES notation.

In turn, `COc1cc2c(cc1OC)CN(C(=O)CCN1CCC(COc3ccc4c(c3)OCO4)CC1)CC2` displayed an EC30 in assay [1] of 0.47 µM. In assay [2], this compound showed a Heart rate of -20 beats min-1.
In turn, `COc1cc2c(cc1OC)CN(C(=O)CCN1CCC(CCCOc3ccc4c(c3)OCO4)CC1)CC2` had an EC30 in assay [1] of 0.62 µM.
`COc1cc2c(cc1OC)CN(C(=O)CCN1CCCC(COc3ccc4c(c3)OCO4)C1)CC2` (stereo not given) returned an EC30 in assay [1] of 0.17 µM.
Take `COc1cc2c(cc1OC)CN(C(=O)CN1CCCC(COc3ccc4c(c3)OCO4)C1)CC2` (stereo not given): the 30% effect level in assay [1] (EC30) was put at 1.17 µM.
Same read-out and setting: then `COc1cc2c(cc1OC)CN(C(=O)CCN1CCC(CCOc3ccc4c(c3)OCO4)CC1)CC2`, with 0.45 µM; and `COc1cc2c(cc1OC)CN(C(=O)C1CCCN(CCCOc3ccc4c(c3)OCO4)C1)CC2` (stereo not given), with 0.37 µM; and `COc1cc2c(cc1OC)CN(C(=O)CCN1CCCC(CCOc3ccc4c(c3)OCO4)C1)CC2` (stereo not given), with 0.34 µM.
In assay [1], `COc1cc2c(cc1OC)CN(C(=O)CCN1CCC(Oc3ccc4c(c3)OCO4)CC1)CC2` showed a concentration for an effect of 30% (EC30) of 0.44 µM. In assay [3], this compound showed a Heart rate of -87.8 beats min-1. In addition, the MBP in assay [4] amounted to 2 mmHg.
With `COc1cc2c(cc1OC)CN(C(=O)CCN1CCCC(Oc3ccc4c(c3)OCO4)C1)CC2` (stereo not given), the EC30 in assay [1] stood at 3.03 µM.
With `COc1cc2c(cc1OC)CN(C(=O)CCN1CCCC(CCCOc3ccc4c(c3)OCO4)C1)CC2` (stereo not given), the concentration for an effect of 30% (EC30) in assay [1] is 0.39 µM.
The same measure, in the same setting: next, `COc1cc2c(cc1OC)CN(C(=O)CCCN1CCCC(COc3ccc4c(c3)OCO4)C1)CC2` (stereo not given): 0.85 µM; `COc1ccc(CCN(C)CCCN2CCc3cc(OC)c(OC)cc3CC2=O)cc1OC` [ZATEBRADINE]: 0.26 µM.

(Values after ChEMBL document CHEMBL1149239, “Synthesis and pharmacological evaluation of piperidinoalkanoyl-1,2,3,4-tetrahydroisoquinoline derivatives as novel specific bradycardic agents” (2004).)
